# Patent publication EP4813999A1, “NOVEL PEPTIDE DERIVATIVE AND PHARMACEUTICAL COMPOSITION FOR PREVENTING OR TREATING MACULAR DEGENERATION COMPRISING SAME” (Supadelixir Inc., priority 2023, dated 2026)
# Experiments:
# Format in all cases: cell-based, human
# [1] = test system: HUVECs; test: Cytotoxicity of test substance (CCK-8 cell viability); details: 24, 48 and 72 hours, up to a concentration of 1,000 nM (1 µM), relative to untreated group at 24 hours
# Experimental: (§1) The anti-angiogenic activity of the test substance (SE101B2L) was evaluated using HUVECs. HUVECs were cultured in CEFOgro-HUVEC basal medium (CEFO Co., Ltd.) supplemented with growth supplements containing vascular endothelial cell growth-related factors and serum (HUVEC supplements, CEFO Co., Ltd.), which was used as vascular endothelial cell growth medium (hereinafter denoted as "growth medium").
# HUVECs were seeded into a 96-well plate at 5 × 10^3 cells per well together with 0.1 ml of growth medium. After incubation for one day, the cells were treated with the test substance (SE101B2L) such that the final concentration increased tenfold from 0.001 nM (denoted as log -3) to 10,000 nM (denoted as log 4). Thereafter, test groups were incubated for 24, 48, and 72 hours, and Cell Counting Kit-8 (CCK-8) was added at each predetermined time point, followed by incubation for an additional 2 hours, and absorbance was measured at 450 nm. Cell viability was calculated relative to the absorbance value of the untreated group at 24 hours.
# [2] = test system: HUVECs; test: VEGF-induced tube formation on Matrigel; details: VEGF 10 ng/ml, test substance 0.1, 1, 10, 100 nM, 24 hours
# Experimental: as §1
# (§2) The experiment was conducted by dividing the groups into an untreated group, a group treated with VEGF alone, and a group co-treated with VEGF and the test substance (SE101B2L).
# First, tube formation ability was confirmed to determine whether the test substance inhibited VEGF-induced angiogenesis. HUVECs were seeded into a Matrigel-coated 48-well plate at 5 × 10^4 cells per well together with 0.5 ml of growth medium. VEGF was added to each VEGF-treated group to a final concentration of 10 ng/ml, while the test substance was added to each test substance-treated group to final concentrations of 0.1, 1, 10, and 100 nM. The test plate was incubated in an incubator with 5% CO2 at 37°C for 24 hours. After 24 hours, the degree of tube formation was observed under a microscope and photographed. The total tube length in each image was measured using the ImageJ program. The results were converted to values relative to the tube length for the untreated group.
# [3] = test system: AKT and ERK; test: VEGF-induced phosphorylation of AKT and ERK (immunoblot); details: HUVECs; VEGF co-treatment; test substance 0.1, 1, 10, 100 nM; 10 minutes
# Experimental: as §2
# Additionally, whether the test substance could regulate the phosphorylation levels of AKT and ERK molecules, which are important in signaling related to VEGF-induced angiogenesis, was tested. Into a 6-well plate containing 2 ml of growth medium, 2 × 10^5 HUVECs were added and seeded, followed by incubation in an incubator with 5% CO2 at 37°C for one day. Subsequently, after washing the cells with phosphate-buffered saline (PBS), incubation was performed for an additional 6 hours using CEFOgro-HUVEC medium containing 1% fetal bovine serum. The prepared cells were divided into an untreated group, a group treated with VEGF alone, and groups co-treated with VEGF and the test substance (0.1, 1, 10, and 100 nM), followed by treatment with the test substance. […] Protein amounts of the cell lysates were measured by a Bradford assay, followed by separation using sodium dodecyl sulfate-polyacrylamide gel electrophoresis (SDS-PAGE). […]
# [4] = test system: VE-cadherin and ZO-1; test: Expression levels and patterns of junctional proteins (immunofluorescence); details: HUVECs; VEGF 50 ng/mL, 90 minutes; test substance 10 and 100 nM
# Description: Whether the test substance (SE101B2L) could regulate changes in permeability caused by VEGF-induced changes in membrane protein stability of vascular endothelial cells was confirmed. Expression levels and patterns of VE-cadherin and ZO-1, which are junctional proteins associated with vascular stability and permeability and connect cells to one another, were confirmed. One circular coverslip having a diameter of 12 mm was placed in each well of a 24-well plate, and gelatin was applied using a 2% gelatin solution to facilitate cell attachment. Into the prepared wells, 1 × 10^5 HUVECs were seeded per well. The cells were cultured in an incubator with 5% CO2 at 37°C for 4 days, with the growth medium replaced every other day. After confirming that the cells had become completely confluent, the cells were incubated for 1 hour using serum-free CEFOgro-HUVEC medium. At this time, the test substance was added to the corresponding wells to final concentrations of 10 and 100 nM. Upon completion of the incubation, VEGF at a final concentration of 50 ng/mL was added, followed by incubation for an additional 90 minutes. The incubated samples were fixed at room temperature for 15 minutes using a 10% formalin solution. […] The corresponding samples were photographed under a fluorescence microscope.
substance,measurement,setting,value
decylbenzoyl-Cys-Phe-Lys-amide [SE101B2L],cell viability (cytotoxicity),[1],no significant difference in cell viability
same,tube formation ability (total tube length),[2],reduced by the test substance in a concentration-dependent manner
same,"phosphorylation levels of signaling molecules (AKT, ERK)",[3],reduced by the test substance in a concentration-dependent manner
same,"expression levels and patterns of junctional proteins between cells (VE-cadherin, ZO-1)",[4],appear similarly to those of the untreated group in a concentration-dependent manner
